Reference: US20060046972A1, “Cytotoxic nucleoside analog compound 003 for treating cancer” (Parker Hughes Institute, priority 2004, published 2006)

Tested on: Lewis rats
Assay: Cumulative toxicity of intraperitoneal doses in Lewis rats
Type: in vivo
Parameters: RBC: unit not given here
Conditions: for ALC / ALT / ANC / AST / Albumin / Ammonia / Amylase / BUN / CPK / Calcium / Creatinine / Mean Weight Change (g ± SEM) / Mean Weight Change [%] / Morbidity / Phosphate / RBC / Total Bilirubin / Total Protein / Toxic Organ Lesions / Triglycerides / WBC / Weight Gain / Weight Loss: day 30
Protocol: 1.2.8 Animals Female CD-1 mice (Body weight: ˜25 g; Age: 7 week old) were purchased, from Charles River Laboratories (Willmington, Mass., USA). MMTV Neu-mice [FVB/N-TgN(MMTV neu)202MUL; Jackson Laboratory, Bar Harbor, Me.] were bred to produce multiple litters. All mice were housed in microisolator cages (Lab Products, Inc., Maywood, N.Y., USA) containing autoclaved bedding in a controlled specific pathogen-free (SPF) environment (12-h light/12-h dark photoperiod, 22±1° C., 60±10% relative humidity), which is fully accredited by the USDA (United States Department of Agriculture). Adult male Lewis rats (Body weight: ˜160 g) were obtained from the specific pathogen-free (SPF) breeding facilities of Harlan Sprague Dawley (Indianapolis, Id., USA) at 14 weeks of age. All husbandry and experimental contact made with the mice and rats maintained SPF conditions. The rats were kept in microisolater cages (Allentown Caging Equipment Co., Inc., Allentown, N.J., USA) containing autoclaved food, water, and bedding. Animal studies were approved by Parker Hughes Institute Animal Care and Use Committee and all animal care procedures 1.5 conformed to the Guide for the Care and Use of Laboratory Animals (National Research Council, National Academy Press, Washington D.C. 1996, USA).
The toxicity profile of Compound 003 in CD-1 mice and Lewis rats was examined, using standard procedures as previously reported for other experimental drugs (Uckun, et al., 2003, Arzneimittelforschun. 53:357; Uckun, et al., 2002, Clin Cancer Res. 8: 1224; Uckun, et al., 2002, Antimicrob Agents Chemother. 46:3428). In brief, mice and rats were treated with intraperitoneal injections of vehicle or Compound 003 at multiple dose levels. Compound 003 was administered as a 0.2 mL (for mice) or 0.5 mL (for rats) bolus injection containing 10% DMSO as a vehicle. Animals were allowed free access to autoclaved standard pellet food and tap water throughout the experiments and monitored daily for morbidity and mortality. Animals were electively sacrificed on day 7 or day 30 to determine the toxicity of Compound 003 by examining their blood chemistry profiles, blood counts, and evaluating multiple organs for the presence of toxic lesions. Blood was collected by intracardiac puncture following anesthesia with ketamine:xylazine and immediately heparinized. The blood chemistry profiles were examined using a Synchron CX5CE Chemical Analyzer (Beckman Instruments, Inc., Fullerton, Calif., USA). Blood counts (red blood cells [RBC], white blood cells [WBC] and platelets [Plt]) were determined using a HESKA Vet ABC-Diff Hematology Analyzer (HESKA Corporation, Fort Collins, Colo., USA). Absolute neutrophil counts (ANC) and absolute lymphocyte counts (ALC) were calculated from WBC values after determining the percentages of neutrophils and lymphocytes by a manual differential count. At the time of necropsy, […] from mice (bone, bone marrow, brain, cecum, heart, kidney, large intestine, liver, lung, lymph node, ovary, pancreas, skeletal muscle, skin, small intestine, spleen, stomach, thymus, thyroid gland, urinary bladder, and uterus, as available) and 21 different tissues from rats (bone, bone marrow, brain, coagulating gland, epididymis, heart, large intestine, small intestine, kidney, liver, lung, pancreas, peripheral nerve/spinal nerve, skeletal muscle, skin, spinal cord, spleen, stomach, testes, thymus, urinary bladder) were collected within 15 minutes after sacrifice, gross pathological findings were documented, organs were preserved in 10% neutral phosphate buffered formalin, and processed for histopathological examination. For histopathologic studies, formalin fixed tissues were dehydrated and embedded in paraffin by routine methods. Glass slides with affixed 4-5 micron tissue sections were prepared and stained with Hemotoxylin and Eosin (H&E). […]

[1] = 20 mg/kg i.p. for 30 consecutive days
[2] = 40 mg/kg i.p. for 30 consecutive days
[3] = 80 mg/kg i.p. for 30 consecutive days

**Q.** What does the source list for `COC(=O)C(C)NP(=O)(OCC1OC(n2cc(C)c(=O)[nH]c2=O)CC1N=[N+]=[N-])Oc1ccc(OC)cc1` (stereo not shown) [Compound 003, 3′-azidothymidine 5′-[p-methoxyphenylmethoxyalaninyl phosphate]]?
**A.** ALC [1]: 9.6 ± 0.0 ×10^9L; ALT [1]: 68.0 ± 5.5 IU/L; ANC [1]: 2.4 ± 0.0 ×10^9L; AST [1]: 7.6 ± 1.6 IU/L; Albumin [1]: 1.5 ± 0.0 g/dL; Ammonia [1]: 77.2 ± 4.1 µmol/L; Amylase [1]: 1667.1 ± 29.8 U/L; BUN [1]: 21.8 ± 0.4 mg/dL; CPK [1]: 546.1 ± 109.9 IU/L; Calcium [1]: 10.9 ± 0.1 mg/dL; Creatinine [1]: 0.6 ± 0.0 mg/dL; Mean Weight Change (g ± SEM) [1]: 9.02 ± 1.39 g; Mean Weight Change [%] [1]: (2.68 ± 0.41%); Morbidity [1]: 0/10; Phosphate [1]: 6.2 ± 0.2 mg/dL; RBC [1]: 10.0 ± 0.1 ×10^9; Total Bilirubin [1]: 0.6 ± 0.1 mg/dL; Total Protein [1]: 6.3 ± 0.1 g/dL; Toxic Organ Lesions [1]: 0/10; Triglycerides [1]: 87.4 ± 9.9 mg/dL; WBC [1]: 11.9 ± 0.4 ×10^9/L; Weight Gain [1]: 10/10; Weight Loss [1]: 0/10; ALC [2]: 10.7 ± 0.0 ×10^9L; ALT [2]: 64.2 ± 1.4 IU/L; ANC [2]: 1.9 ± 0.0 ×10^9L; AST [2]: 6.8 ± 1.0 IU/L; Albumin [2]: 1.6 ± 0.0 g/dL; Ammonia [2]: 91.4 ± 8.2 µmol/L; Amylase [2]: 1586.3 ± 31.4 U/L; BUN [2]: 21.8 ± 0.3 mg/dL; CPK [2]: 409.4 ± 55.3 IU/L; Calcium [2]: 10.4 ± 0.1 mg/dL; Creatinine [2]: 0.5 ± 0.0 mg/dL; Mean Weight Change (g ± SEM) [2]: 9.66 ± 1.36 g; Mean Weight Change [%] [2]: (2.85 ± 0.38%); Morbidity [2]: 0/10; Phosphate [2]: 5.6 ± 0.1 mg/dL; RBC [2]: 10.1 ± 0.1 ×10^9; Total Bilirubin [2]: 0.6 ± 0.1 mg/dL; Total Protein [2]: 6.1 ± 0.1 g/dL; Toxic Organ Lesions [2]: 0/10; Triglycerides [2]: 103.0 ± 10.7 mg/dL; WBC [2]: 12.9 ± 0.4 ×10^9/L; Weight Gain [2]: 10/10; Weight Loss [2]: 0/10; ALC [3]: 10.0 ± 0.0 ×10^9L; ALT [3]: 62.5 ± 1.8 IU/L; ANC [3]: 2.1 ± 0.0 ×10^9L; AST [3]: 9.4 ± 0.7 IU/L; Albumin [3]: 1.6 ± 0.0 g/dL; Ammonia [3]: 92.8 ± 6.0 µmol/L; Amylase [3]: 1658.3 ± 51.8 U/L; BUN [3]: 22.7 ± 0.7 mg/dL; CPK [3]: 371.0 ± 44.3 IU/L; Calcium [3]: 10.5 ± 0.2 mg/dL; Creatinine [3]: 0.6 ± 0.0 mg/dL; Mean Weight Change (g ± SEM) [3]: 7.37 ± 1.70 g; Mean Weight Change [%] [3]: (2.24 ± 0.51%); Morbidity [3]: 0/10; Phosphate [3]: 5.9 ± 0.1 mg/dL; RBC [3]: 9.8 ± 0.1 ×10^9; Total Bilirubin [3]: 0.7 ± 0.1 mg/dL; Total Protein [3]: 6.3 ± 0.1 g/dL; Toxic Organ Lesions [3]: 0/10; Triglycerides [3]: 83.4 ± 11.2 mg/dL; WBC [3]: 12.2 ± 0.3 ×10^9/L; Weight Gain [3]: 9/10; Weight Loss [3]: 1/10; postmortem gross pathology (20-80 mg/kg/day for 30 days): did not reveal any gross pathological findings; Slight tubular degeneration, share of animals (80 and 40 mg/kg): 50%; systemic toxicity by blood tests (day 30, 20-80 mg/kg/day): did not suggest any significant systemic toxicity; tolerability (i.p. daily for up to 30 days, daily dose as high as 80 mg/kg, cumulative as high as 2.4 g/kg): well tolerated
